Source: ChEMBL document CHEMBL4177539, “Discovery of N-((3R,4R)-4-Fluoro-1-(6-((3-methoxy-1-methyl-1H-pyrazol-4-yl)amino)-9-methyl-9H-purin-2-yl)pyrrolidine-3-yl)acrylamide (PF-06747775) through Structure-Based Drug Design: A High Affinity Irreversible Inhibitor Targeting Oncogenic EGFR Mutants with Selectivity over Wild-Type EGFR” (J Med Chem, 2017)

Assays:
in vitro = conditions: human, liver microsomes
[1] = molecular target: Epidermal growth factor receptor (Homo sapiens, UniProt P00533, EX19DEL)
[2] = molecular target: Epidermal growth factor receptor (Homo sapiens, UniProt P00533)
physchem = conditions: octanol/water
[3] = molecular target: Epidermal growth factor receptor (Homo sapiens, UniProt P00533, EX19DEL/T790M)
Homo sapiens = species: Homo sapiens; experiment: Selectivity index, ratio of IC50 for wild-type EGFR autophosphorylation in human A549 cells to IC50 for EGFR T790M/L858R double mutant autophosphorylation in human H1975 cells; format: cell-based

Sequence of Epidermal growth factor receptor (Homo sapiens, UniProt P00533) (P00533 whole entry): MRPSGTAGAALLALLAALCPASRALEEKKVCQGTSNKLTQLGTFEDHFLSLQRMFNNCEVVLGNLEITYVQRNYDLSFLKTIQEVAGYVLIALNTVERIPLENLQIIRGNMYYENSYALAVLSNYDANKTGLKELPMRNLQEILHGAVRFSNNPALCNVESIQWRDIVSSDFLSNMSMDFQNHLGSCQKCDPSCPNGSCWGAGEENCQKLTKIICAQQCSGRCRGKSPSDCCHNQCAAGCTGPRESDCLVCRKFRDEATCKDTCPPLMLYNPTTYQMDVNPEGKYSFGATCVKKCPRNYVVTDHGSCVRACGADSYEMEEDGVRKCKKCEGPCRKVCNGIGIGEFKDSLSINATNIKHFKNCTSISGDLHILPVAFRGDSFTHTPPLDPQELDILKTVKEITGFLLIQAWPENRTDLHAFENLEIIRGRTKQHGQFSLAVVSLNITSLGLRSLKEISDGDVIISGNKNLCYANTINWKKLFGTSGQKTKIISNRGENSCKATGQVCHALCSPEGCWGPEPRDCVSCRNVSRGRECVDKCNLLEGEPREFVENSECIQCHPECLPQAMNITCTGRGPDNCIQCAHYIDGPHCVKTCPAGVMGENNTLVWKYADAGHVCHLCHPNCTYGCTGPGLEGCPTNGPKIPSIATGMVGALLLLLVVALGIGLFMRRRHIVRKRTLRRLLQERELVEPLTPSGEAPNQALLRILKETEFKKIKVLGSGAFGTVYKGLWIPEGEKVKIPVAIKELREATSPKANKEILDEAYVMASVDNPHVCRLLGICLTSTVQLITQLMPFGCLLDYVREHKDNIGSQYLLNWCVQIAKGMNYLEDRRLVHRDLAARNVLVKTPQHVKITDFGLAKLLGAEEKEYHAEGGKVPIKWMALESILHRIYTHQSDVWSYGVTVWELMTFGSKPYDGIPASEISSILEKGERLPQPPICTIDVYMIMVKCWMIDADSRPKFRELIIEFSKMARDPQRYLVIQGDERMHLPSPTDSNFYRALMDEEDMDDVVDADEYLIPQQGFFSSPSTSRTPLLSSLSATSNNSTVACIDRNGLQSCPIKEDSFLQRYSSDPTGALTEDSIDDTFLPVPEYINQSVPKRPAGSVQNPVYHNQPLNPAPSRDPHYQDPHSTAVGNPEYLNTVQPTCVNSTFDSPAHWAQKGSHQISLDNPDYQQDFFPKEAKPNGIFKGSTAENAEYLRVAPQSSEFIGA
Sequence of Epidermal growth factor receptor (Homo sapiens, UniProt P00533, EX19DEL) (P00533 whole entry, looked up, stated change not applied): as the sequence (P00533 whole entry) above
Sequence of Epidermal growth factor receptor (Homo sapiens, UniProt P00533, EX19DEL/T790M) (P00533 whole entry, looked up, stated change not applied): as the sequence (P00533 whole entry) above

SMILES	microsomal CLint at […], 1 µM (in vitro) [µL/min/mg]	IC50 [1] [nM]	IC50 [2] [nM]	logD (physchem)	IC50 [3] [nM]	Ratio IC50 (Homo sapiens)
C=CC(=O)N[C@@H]1CN(c2nc(Nc3cn(C)nc3C)c3ncn(C(C)C)c3n2)C[C@H]1F	30	16	1450	2.6	4	56
C=CC(=O)N[C@@H]1CCN(c2nc(Nc3cnn(C)c3)c3ncn(C(C)C)c3n2)C1	–	–	–	2.7	–	–
C=CC(=O)N1C[C@@H]2CN(c3nc(Nc4cnn(C)c4)c4ncn(C(C)C)c4n3)C[C@@H]2C1	–	–	–	2.2	–	16
C=CC(=O)N[C@H]1CCN(c2nc(Nc3cnn(C)c3)c3ncn(C(C)C)c3n2)C1	–	–	–	2.3	–	13

Now from value to compound, other results behind:

microsomal CLint at […], 1 µM (in vitro) [µL/min/mg]	IC50 [1] [nM]	IC50 [2] [nM]	logD (physchem)	IC50 [3] [nM]	SMILES	Ratio IC50 (Homo sapiens)
–	–	–	2.5	–	C=CC(=O)N1CC[C@@H](Nc2nc(Nc3ccc(N4CCN(C)CC4)cc3)c3ncn(C(C)C)c3n2)C1	13
–	–	–	2	–	C=CC(=O)N[C@@H]1CCN(c2nc(Nc3ccc(N4CCN(C)CC4)cc3)c3ncn(C(C)C)c3n2)C1	–
–	–	–	2.2	–	C=CC(=O)N[C@H]1CCN(c2nc(Nc3ccc(N4CCN(C)CC4)cc3)c3ncn(C(C)C)c3n2)C1	15
